From patent US20060084135A1, “Compositions for manipulating the lifespan and stress response of cells and organisms” (priority 2003, published 2006)

Columns and labels:
recombinant human SIRT1 = target: T1, recombinant human SIRT1 (Homo sapiens, UniProt Q96EB6); experiment: SIRT1 fluorescent deacetylation assay (p53-382 acetylated peptide substrate); assay type: biochemical
T1 sequence (Q96EB6 1-747): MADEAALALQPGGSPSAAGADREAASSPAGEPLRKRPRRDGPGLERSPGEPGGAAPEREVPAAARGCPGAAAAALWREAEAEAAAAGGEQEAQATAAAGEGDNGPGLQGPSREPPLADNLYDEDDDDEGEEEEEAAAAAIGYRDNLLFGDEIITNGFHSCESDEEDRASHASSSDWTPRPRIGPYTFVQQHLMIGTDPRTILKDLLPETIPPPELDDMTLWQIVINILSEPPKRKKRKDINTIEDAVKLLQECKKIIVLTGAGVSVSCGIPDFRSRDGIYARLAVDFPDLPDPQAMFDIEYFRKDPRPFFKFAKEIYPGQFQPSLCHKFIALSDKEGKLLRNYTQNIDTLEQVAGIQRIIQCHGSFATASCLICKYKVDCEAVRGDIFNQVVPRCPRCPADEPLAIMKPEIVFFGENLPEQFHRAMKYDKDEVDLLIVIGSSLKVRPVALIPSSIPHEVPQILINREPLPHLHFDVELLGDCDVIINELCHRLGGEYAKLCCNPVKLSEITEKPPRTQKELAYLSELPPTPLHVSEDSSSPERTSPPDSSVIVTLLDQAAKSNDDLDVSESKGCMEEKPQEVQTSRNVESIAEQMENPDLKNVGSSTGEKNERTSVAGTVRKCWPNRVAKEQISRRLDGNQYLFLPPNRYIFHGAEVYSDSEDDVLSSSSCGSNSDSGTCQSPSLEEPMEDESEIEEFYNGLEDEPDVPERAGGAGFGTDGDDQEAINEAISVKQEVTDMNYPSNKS

[1] = Stability in solution (decay of SIRT1 fold-stimulation of aged stock); assay type: physicochemical; conditions: ethanol stock solution; ethanol stock 2.5 mM, room temperature, glass vials, nitrogen; assayed at 50 μM; read-out: Stability in Solution t1/2 (converted)
Excerpt: The fold-stimulation (ratio to control) obtained with a compound diluted from an aged stock solution was compared to an identical dilution from a stock solution freshly prepared from the solid compound. “t1/2” is defined as the time required for the SIRT1 fold-stimulation of the compound from the aged solution to decay to one-half of that obtained from a freshly prepared solution. […] Stocks were aged by storage at room […] temperature, in glass vials, under a nitrogen atmosphere.

[2] = system: W303AR cells (rDNA locus RDN1); experiment: Ribosomal DNA recombination frequency; assay type: cell-based, S. cerevisiae
[3] = system: rDNA silencing (RDN1::URA3); experiment: Ribosomal DNA silencing assay (URA3 reporter); assay type: cell-based, S. cerevisiae
Procedure: Yeast lifespans were determined as in FIG. 2. […] Frequencies were determined by loss of the ADE2 marker gene from the rDNA locus (RDN1). […] Pre-treated cells (RDN1::URA3) were harvested and spotted as 10-fold serial dilutions on either SC or SC with 5-fluororotic acid (5-FOA). In this assay, increased rDNA silencing results in increased survival on 5-FOA medium.
Ribosomal DNA silencing assays using the URA3 reporters were performed as previously described by Bitterman et al. (J Biol Chem 277, 45099-107 (2002)). Ribosomal DNA recombination frequencies were determined by plating W303AR cells (Sinclair, D. A. and Guarente, L. Cell 91, 1033-42 (1997)) on YPD medium with low adenine/histidine and counting the fraction of half-red sectored colonies using Bio-Rad Quantity One software as described by Anderson et al. (J Biol Chem 277, 18881-90. (2002)). At least 6000 cells were analyzed per experiment and all experiments were performed in triplicate. All strains were pre-grown for 15 hours with the relevant compound prior to plating.

recombinant GST-Sir2 = recombinant GST-Sir2 (Saccharomyces cerevisiae, UniProt P06700); experiment: Sir2 deacetylation rate assay; assay type: biochemical, S. cerevisiae; conditions: in vitro dose-response
Procedure: Average lifespan was determined for wild type untreated (□), quercetin (◯) and piceatannol (●).
To investigate whether these compounds could stimulate sirtuins in vivo, we utilized S. cerevisiae, an organism in which the upstream regulators and downstream targets of Sir2 are relatively well understood.
His6-tagged recombinant SIRT1 and GST-tagged recombinant Sir2 were prepared as described by (Bitterman et al. J Biol Chem 277, 45099-107. (2002). From 0.1 to 1 μg of SIRT1 and 1.5 μg of Sir2 were used per deacetylation assay (in 50 μl total reaction). SIRT1 assays and certain of those for Sir2 employed the p53-382 acetylated substrate (‘Fluor de Lys-SIRT1′, BIOMOL) rather than FdL.
Themed compound libraries (BIOMOL) were used for primary and secondary screening. […] For water soluble compounds and negative controls, 1% v/v DMSO was added to the assay. […] HeLa cells were grown and the cellular deacetylation assays were performed and read, as above, but in full-volume 96-well microplates (Corning Costar 3595). […] Calculation of net fluorescence increases included subtraction of a blank value, which in the case of Sir2 was obtained by omitting the enzyme from the reaction and in the case of SIRT1 by adding an inhibitor (200 μM suramin or 1 mM nicotinamide) to the reaction prior to the acetylated substrate. […]

S. cerevisiae = experiment: Yeast replicative lifespan; assay type: cell-based
[4] = system: lysine 382 of p53 in HEK 293 cells; experiment: p53 Ac-K382 Western blot in HEK 293 cells expressing dominant negative SIRT1-H363Y; assay type: cell-based, human; conditions: low concentrations of resveratrol
C. elegans (strain N2) = experiment: C. elegans lifespan; assay type: in vivo; conditions: 100 μM, 50 worms strain N2 (control 5 alive)
Procedure: Thus, the presence of resveratrol in the growth media of C. elegans extends their lifespan.
The effect of some of these compounds on lifespan was determined in yeast, C. elegans and D. melanogaster, as described above.

[5] = 25 μM NAD+, 25 μM p53-382 acetylated peptide

Chain of recombinant GST-Sir2 (P06700 whole entry): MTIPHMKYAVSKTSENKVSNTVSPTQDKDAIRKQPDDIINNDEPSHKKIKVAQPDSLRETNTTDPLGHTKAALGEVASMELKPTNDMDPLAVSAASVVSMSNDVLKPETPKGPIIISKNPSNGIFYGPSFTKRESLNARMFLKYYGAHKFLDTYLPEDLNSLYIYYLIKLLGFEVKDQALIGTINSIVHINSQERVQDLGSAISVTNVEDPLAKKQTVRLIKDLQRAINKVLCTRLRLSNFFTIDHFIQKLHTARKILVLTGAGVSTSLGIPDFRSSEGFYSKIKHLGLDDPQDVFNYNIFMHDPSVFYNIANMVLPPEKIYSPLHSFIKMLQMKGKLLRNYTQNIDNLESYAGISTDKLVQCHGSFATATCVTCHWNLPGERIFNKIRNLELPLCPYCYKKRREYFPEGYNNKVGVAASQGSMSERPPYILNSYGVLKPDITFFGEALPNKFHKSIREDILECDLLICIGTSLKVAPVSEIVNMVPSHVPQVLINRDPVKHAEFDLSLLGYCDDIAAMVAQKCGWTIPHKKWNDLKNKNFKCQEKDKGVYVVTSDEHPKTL

With `Oc1ccc(/C=C/c2cc(O)cc(O)c2)cc1` [Resveratrol, 3,5,4′-Trihydroxy-trans-stilbene] the “Apparent Km for NAD+ and acetylated substrate” value (recombinant human SIRT1; 5 μM resveratrol in the presence of 50 μM nicotinamide) was “raised”, the “Concentration at which the activating effect doubled the rate” value (recombinant human SIRT1; [5]) was roughly 11 µM and the “Concentration at which the activating effect was essentially saturated” value (recombinant human SIRT1; [5]) was roughly 100 µM. The “Effect on the two Vmax determinations” value (recombinant human SIRT1; 100 μM resveratrol) was “no significant effect”, the “Lowering of Km for NAD+” value (recombinant human SIRT1; 100 μM resveratrol, 1 mM p53-382 acetylated peptide) was “over 5 fold” and the “Decrease of acetylated peptide Km” value (recombinant human SIRT1; 100 μM resveratrol, 3 mM NAD+) was 35 fold. For the same molecule, the “Km for both NAD+ and acetylated peptide” value (recombinant human SIRT1; 20 and 100 μM resveratrol in the presence of 50 μM nicotinamide) was “lowers”, the “Vmax, NAD+ varied” value (recombinant human SIRT1; +100 μM resveratrol, 1 mM p53-382 acetylated peptide (control 1863)) was 1749 AFU/min and the “Vmax, p53-382 acetylated peptide varied” value (recombinant human SIRT1; +100 μM resveratrol, 3 mM NAD+ (control 1107)) was 926 AFU/min. The half-life at 50 µM [1] was 59 h, the “rDNA recombination in a sir2 strain” value ([2]; sir2 strain) was “does not suppress” and the “rDNA recombination in the presence of nicotinamide” value ([2]; with the Sir2 inhibitor nicotinamide) was “decreased”. For the same molecule, the “Effect on rDNA silencing” value [3] was “only minor effects”, the “Concentrations at which inhibition of Sir2 was seen” value (recombinant GST-Sir2) was greater than 100 µM and the “Optimum concentration of activator for Sir2 stimulation” value (recombinant GST-Sir2) was 2 to 5 µM. The “Extension of the lifespan of a pnc1 null mutant” value (S. cerevisiae; pnc1 null mutant) was “nearly as well as it did wild type cells”, the “Lifespan benefit of concentrations higher than 10 μM” value (S. cerevisiae; resveratrol 100 μM, 500 μM) was “no added lifespan benefit” and the “Effect on the lifespan of a sir2 null mutant” value (S. cerevisiae; sir2 null mutant) was “no effect”. The “Ability to promote deacetylation of p53 in cells expressing dominant-negative SIRT1 (H363Y)” value [4] was “diminished” and the “Worms alive on day 17” value (C. elegans (strain N2)) was 17 worms.
